Source: the CombiSolv-Exp solvation set (Vermeire and Green 2021)

Test: solvent given as SMILES

Structure (SMILES): Clc1ccc2c(c1)Oc1ccc(Cl)cc1O2
- solvation free energy, 298 K (in O): -3.67 kcal/mol

Structure (SMILES): COC(=O)c1ccc(Cl)c(Cl)c1
- solvation free energy, 298 K (in CN(C)C=O): -9.19 kcal/mol
- solvation free energy, 298 K (in O): -3.75 kcal/mol

Structure (SMILES): Nc1ncnc2c1ncn2C1CC(O)C(CO)O1 (configuration not stated)
- solvation free energy, 298 K (in C=CCCCCCCC=C): -16.6 kcal/mol
- solvation free energy, 298 K (in C=CCCCCCCCCCCCCCC): -15.8 kcal/mol
- solvation free energy, 298 K (in O): -24.3 kcal/mol

Structure (SMILES): CCCCCC=CC=O
- solvation free energy, 298 K (in O): -3.43 kcal/mol

Structure (SMILES): CN1C2CCC1CC(OC(=O)C(CO)c1ccccc1)C2 (configuration not stated)
- solvation free energy, 298 K (in CCO): -18 kcal/mol

Structure (SMILES): Clc1ccc(Cl)c(-c2ccccc2Cl)c1
- solvation free energy, 298 K (in CCCCCCCCC=CCCCCCCCC(=O)OCC(COC(=O)CCCCCCCC=CCCCCCCCC)OC(=O)CCCCCCCC=CCCCCCCCC): -9.75 kcal/mol
- solvation free energy, 298 K (in O): -2.37 kcal/mol

Structure (SMILES): CC(C)I
- solvation free energy, 298 K (in CCO): -3.98 kcal/mol
- solvation free energy, 298 K (in O): -0.46 kcal/mol

Structure (SMILES): CCCCCCCCCCOC(=O)c1ccccc1C(=O)OCC
- solvation free energy, 298 K (in O): -6.78 kcal/mol

Structure (SMILES): CCCCCCCOC(=O)c1ccccc1C(=O)OCCCCCCC
- solvation free energy, 298 K (in O): -6.68 kcal/mol

Structure (SMILES): O=C(O)c1ccccc1Cl
- solvation free energy, 298 K (in CC(C)=O): -10.4 kcal/mol
- solvation free energy, 298 K (in CN(C)C=O): -11.1 kcal/mol
- solvation free energy, 298 K (in O): -7.53 kcal/mol

Structure (SMILES): CC(C)C(C)(C)O
- solvation free energy, 298 K (in CCCCCCCC): -4.6 kcal/mol
- solvation free energy, 298 K (in CCCCCCCCCC): -4.55 kcal/mol

Structure (SMILES): ClC(Cl)C(Cl)Cl
- solvation free energy, 298 K (in CC(C)=O): -6.28 kcal/mol
- solvation free energy, 298 K (in CCCCCCCCCCCCCCCC): -5.21 kcal/mol
- solvation free energy, 298 K (in CCCCCCCCO): -5.84 kcal/mol
- solvation free energy, 298 K (in ClC(Cl)(Cl)Cl): -5.93 kcal/mol
- solvation free energy, 298 K (in ClCCCl): -6.37 kcal/mol
- solvation free energy, 298 K (in O): -2.45 kcal/mol
- solvation free energy, 298 K (in [2H]O[2H]): -2.59 kcal/mol

Structure (SMILES): CC(C)NC(C)C
- solvation free energy, 298 K (in O): -3.22 kcal/mol

Structure (SMILES): ClCC(Cl)(Cl)Cl
- solvation free energy, 298 K (in O): -1.43 kcal/mol

Structure (SMILES): O=C1CCCO1
- solvation free energy, 298 K (in CC(C)CC(C)(C)C): -4.99 kcal/mol

Structure (SMILES): CNCc1ccc(C)cc1
- solvation free energy, 298 K (in O): -5.95 kcal/mol

Structure (SMILES): CCCCN(CC)N=O
- solvation free energy, 298 K (in CC(C)CC(C)(C)C): -6.49 kcal/mol
- solvation free energy, 298 K (in O): -5.25 kcal/mol

Structure (SMILES): CCC(C)(C)C
- solvation free energy, 298 K (in C=CCCCCCCCCCCCCCC): -3.12 kcal/mol
- solvation free energy, 298 K (in CC#N): -2.32 kcal/mol
- solvation free energy, 298 K (in CC(C)CCCC(C)CCCC(C)CCCCC(C)CCCC(C)CCCC(C)C): -3 kcal/mol
- solvation free energy, 298 K (in CC(C)O): -2.73 kcal/mol
- solvation free energy, 298 K (in CCC(C)(C)OC): -3.49 kcal/mol
- solvation free energy, 298 K (in CCCCCC): -3.63 kcal/mol
- solvation free energy, 298 K (in CCCCCCCCCC): -3.38 kcal/mol
- solvation free energy, 298 K (in CCCCCCCCCCCCCCCC): -3.18 kcal/mol
- solvation free energy, 298 K (in CCCCCCCCCOC(=O)c1ccccc1C(=O)OCCCCCCCCC): -2.76 kcal/mol
- solvation free energy, 298 K (in CCCCCO): -2.93 kcal/mol
- solvation free energy, 298 K (in CCCCO): -2.89 kcal/mol
- solvation free energy, 298 K (in CN1CCCC1=O): -2.13 kcal/mol
- solvation free energy, 298 K (in CN(C)C=O): -2.33 kcal/mol
- solvation free energy, 298 K (in O): 2.51 kcal/mol

Structure (SMILES): CC1=CCCC(C)=CCC(C)(C)C=CC1
- solvation free energy, 298 K (in O): 0.05 kcal/mol

Structure (SMILES): COc1ccccc1C(=O)O
- solvation free energy, 298 K (in C1CCOC1): -11.8 kcal/mol
- solvation free energy, 298 K (in C1COCCO1): -11.7 kcal/mol
- solvation free energy, 298 K (in CC(C)(C)O): -11 kcal/mol
- solvation free energy, 298 K (in CC(C)CCO): -10.8 kcal/mol
- solvation free energy, 298 K (in CC(C)CO): -10.9 kcal/mol
- solvation free energy, 298 K (in CC(C)O): -10.9 kcal/mol
- solvation free energy, 298 K (in CC(C)OCCO): -11.2 kcal/mol
- solvation free energy, 298 K (in CC(O)COC(C)(C)C): -11 kcal/mol
- solvation free energy, 298 K (in CCC(C)O): -11 kcal/mol
- solvation free energy, 298 K (in CCCC(C)O): -10.8 kcal/mol
- solvation free energy, 298 K (in CCCCCCCCCCO): -10.5 kcal/mol
- solvation free energy, 298 K (in CCCCCCCO): -10.8 kcal/mol
- solvation free energy, 298 K (in CCCCCCO): -10.8 kcal/mol
- solvation free energy, 298 K (in CCCCCO): -10.9 kcal/mol
- solvation free energy, 298 K (in CCCCCOC(C)=O): -10.6 kcal/mol
- solvation free energy, 298 K (in CCCCO): -11.1 kcal/mol
- solvation free energy, 298 K (in CCCCOC(C)=O): -10.8 kcal/mol
- solvation free energy, 298 K (in CCCCOCCO): -11.4 kcal/mol
- solvation free energy, 298 K (in CCCO): -11.2 kcal/mol
- solvation free energy, 298 K (in CCCOCCO): -11.3 kcal/mol
- solvation free energy, 298 K (in CCO): -11.5 kcal/mol
- solvation free energy, 298 K (in CCOC(C)=O): -11.2 kcal/mol
- solvation free energy, 298 K (in CCOCC): -10.5 kcal/mol
- solvation free energy, 298 K (in CCOCCO): -11.5 kcal/mol
- solvation free energy, 298 K (in CO): -11.8 kcal/mol
- solvation free energy, 298 K (in COC(C)=O): -11.3 kcal/mol
- solvation free energy, 298 K (in COC(C)CCO): -11.4 kcal/mol

Structure (SMILES): COC(=O)C(C)(C)C
- solvation free energy, 298 K (in O): -2.4 kcal/mol

Structure (SMILES): COc1cc(C=O)c(Cl)c(OC)c1O
- solvation free energy, 298 K (in O): -7.78 kcal/mol

Structure (SMILES): CCOC(=O)CCC(=O)OCC
- solvation free energy, 298 K (in O): -5.71 kcal/mol
